In publication PMC5954004, “19th European Symposium on Radiopharmacy and Radiopharmaceuticals (ESRR’18)” (EJNMMI Radiopharmacy and Chemistry, 2018):
Like-named read-outs stand apart in the source and are kept apart here.

Assays:
[1] = tested on: Raji cells expressing CD20; experiment: binding of 68Ga-Tz-conjugate after binding of Rtx-TCO to Raji cells; format: cell-based
[2] = 68Ga-labelled conjugates
Protocol: (§2) Tz functionalization was performed by reaction with NHS-PEG5-Tz with FSC (resulting in the trimer FSC-(PEG5-Tz)3), MAFC (resulting in the dimer MAFC-(PEG5-Tz)2) and DAFC (resulting in the monomer DAFC-(PEG5-Tz), starting from its ferric complex with final iron removal by EDTA, HPLC purification and characterization by MS. ^68Ga-labelling was performed in acetate buffer (pH 4.5) at high s.a., resulting complexes were characterized by HPLC, protein binding, log P and stability was assessed. Rituximab was functionalized with NHS-TCO according to published procedures (Rtx-TCO). Binding of Tz-conjugates to TCO was assessed on Rtx-TCO immobilized 96well plates as well as after binding of Rtx-TCO vs Rtx to Raji cells expressing CD20 followed by incubation with 68Ga-Tz-conjugate. Biodistribution was studied in normal balb-c mice.

[3] = 1h p.i., normal balb-c mice
Protocol: as §2

[4] = 68Ga-labelled conjugates; remark: listed apart in the source
Protocol: as §2

[5] = 37°C, 24h incubation
Protocol: Methods: 177Lu-DOTATATE (Lutathera®) was diluted to 1/5th in saline, 5% Glucose, Bicarbonate 8.4% solution, Ringer-Lactate, octreotide solution, octreotide LAR or incubated at 37°C in plasma or plasma enriched with 10% de octreotide. Radiochemical purity (RPC) was determined by ITLC-SG in 0.1mol/L sodium citrate pH=3. […] RPC was also determined using C18 Sep-Pack-Plus cartridge (Waters, USA). The free radionuclide was eluted with 5mL of 0.1mol/L acetate buffer pH=3 and the labelled peptide with 5mL of methanol, and hydroxylated Lu-177 remained inside the cartridge. Mixtures were then analyzed immediately, 30min and 24h after dilution. […] Binary comparisons to the undiluted product were made by a Mann-and-Whitney U test and stability over time checked by a 1-way ANOVA (p < 5%).

[6] = target: T1, mGluR1 (Mus musculus, UniProt P97772); experiment: [11C]ITDM microPET in mouse brain; format: in vivo
T1 construct: PET probe for imaging the kinetics of mGluR1 in mouse brain; from tissue; host or cells: brain of living WT Q175DN mice
T1 sequence (P97772 21-1199): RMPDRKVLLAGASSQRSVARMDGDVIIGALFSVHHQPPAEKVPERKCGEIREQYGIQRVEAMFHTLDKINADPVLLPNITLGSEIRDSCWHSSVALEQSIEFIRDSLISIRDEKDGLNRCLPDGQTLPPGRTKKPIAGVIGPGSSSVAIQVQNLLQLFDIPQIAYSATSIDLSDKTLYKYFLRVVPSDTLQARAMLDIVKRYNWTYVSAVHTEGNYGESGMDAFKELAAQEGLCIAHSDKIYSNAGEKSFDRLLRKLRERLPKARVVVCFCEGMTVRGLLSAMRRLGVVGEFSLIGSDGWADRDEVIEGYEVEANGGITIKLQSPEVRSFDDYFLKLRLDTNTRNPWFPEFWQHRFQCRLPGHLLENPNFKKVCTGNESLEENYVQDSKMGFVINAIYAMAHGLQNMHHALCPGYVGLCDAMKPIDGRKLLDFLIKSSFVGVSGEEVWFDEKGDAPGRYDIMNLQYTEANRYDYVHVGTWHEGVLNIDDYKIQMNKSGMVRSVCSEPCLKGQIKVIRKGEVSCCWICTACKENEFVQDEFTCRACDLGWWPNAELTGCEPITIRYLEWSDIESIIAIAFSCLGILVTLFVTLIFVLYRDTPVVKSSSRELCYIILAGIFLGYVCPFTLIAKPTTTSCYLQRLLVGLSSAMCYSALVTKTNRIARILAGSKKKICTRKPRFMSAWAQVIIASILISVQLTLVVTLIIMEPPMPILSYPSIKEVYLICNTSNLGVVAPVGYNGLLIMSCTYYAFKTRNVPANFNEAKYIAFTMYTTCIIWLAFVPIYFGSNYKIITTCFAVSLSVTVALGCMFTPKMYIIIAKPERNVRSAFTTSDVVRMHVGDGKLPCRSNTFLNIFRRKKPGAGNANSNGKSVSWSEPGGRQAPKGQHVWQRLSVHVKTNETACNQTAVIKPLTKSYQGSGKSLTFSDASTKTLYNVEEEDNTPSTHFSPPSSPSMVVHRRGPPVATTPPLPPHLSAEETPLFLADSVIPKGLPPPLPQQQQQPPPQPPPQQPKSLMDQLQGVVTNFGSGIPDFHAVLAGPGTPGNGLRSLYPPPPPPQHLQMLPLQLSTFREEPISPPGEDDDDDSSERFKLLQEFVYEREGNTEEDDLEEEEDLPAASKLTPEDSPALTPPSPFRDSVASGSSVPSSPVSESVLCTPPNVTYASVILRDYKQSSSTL
Protocol: Methods: We validated [^11C]ITDM as a PET probe for imaging the kinetics of mGluR1 in mouse brain. [^11C]ITDM was prepared by modification of a previously described method^1 in a module (Comecer Netherlands) adapted for automated production. In a cooled solution containing the arylstannane precursor (1.9mg), K2CO3 (2.1mg), CuCl2 (1.5mg), Pd2(dba)3 (1.3mg) and P(o-tol)3 (1.7mg) in DMF purged with N2, [^11C]MeI was bubbled, followed by reaction at 65°C for 5min. The mixture was purified by reverse phase semi-preparative HPLC (tR=8.5min), using MeCN:H2O:Et3N (6:4:0.01, V/V/V) as mobile phase (2.7mL/min) followed by sterile formulation into ethanolic saline containing 0.5% ascorbic acid, using a C18 Sep-Pak cartridge. For in vivo evaluation, WT Q175DN mice (n = 9; 11 months old) were intravenously (i.v.) injected with [^11C]ITDM (5.69±2.4MBq; injected mass=0.87±0.33μg/kg) and dynamically scanned for 90min (Siemens Inveon μPET/CT). To validate target engagement, blocking and displacement studies with mGluR1 antagonist YM-202074 (20mg/kg; i.v.; 2min before and 30min after tracer injection, respectively) were performed. Total volume of distribution (VT) (from 2TCM) was calculated noninvasively using an image-derived input function (IDIF) in several brain regions.

[7] = plutonium decorporation in rats; format: in vivo; details: delayed administration, of the levels in untreated control rats
Protocol: Methods: Unilamellar liposomes (DSPC/Cholesterol/DSPE 69:30:1) were used to encapsulate DTPA (25mM). For decorporation experiments, rats were first contaminated by intravenous administration of the soluble citrate form of ^238Pu (4 to 10.3 kBq), before injection of DTPA, marketed free form or encapsulated in liposomes (2.25 at 6.74 μmol/kg). Treatment schedules started at one hour (prompt treatment) or at seven days (delayed treatment) after contamination and were given as a single injection or repeated injections. A prophylactic single treatment was also tested given at three days before contamination. Organs of interest (liver, bone and spleen mainly) and excreta were collected at different times for measurement of Pu alpha activity.

[8] = target: gastrin-releasing peptide receptor (GRPr) (human (endogenous in PC-3, T47D, MDA-MB-231)) (UniProt P30550)
gastrin-releasing peptide receptor (GRPr) (human (endogenous in PC-3, T47D, MDA-MB-231)), sequence (P30550 whole entry, stated change not applied): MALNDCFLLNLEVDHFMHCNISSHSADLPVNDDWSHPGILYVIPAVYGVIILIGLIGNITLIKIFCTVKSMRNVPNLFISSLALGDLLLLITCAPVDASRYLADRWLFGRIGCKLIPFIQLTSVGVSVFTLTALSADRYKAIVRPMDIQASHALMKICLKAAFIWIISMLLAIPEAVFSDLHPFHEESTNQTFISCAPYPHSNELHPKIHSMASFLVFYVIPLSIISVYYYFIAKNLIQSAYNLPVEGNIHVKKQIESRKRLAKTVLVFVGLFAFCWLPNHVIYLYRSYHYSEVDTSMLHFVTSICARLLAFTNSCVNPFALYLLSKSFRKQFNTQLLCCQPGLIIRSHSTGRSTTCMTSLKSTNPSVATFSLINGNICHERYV

[9] = tested on: Capan-1 cells; experiment: clonogenic survival assay, Capan-1; format: cell-based
Protocol: (§1) Methods: Flow cytometry: EGFR density was measured on AsPC-1, PANC-1, MiaPACA-2, and Capan-1 cell lines. Cells were incubated with panitumumab for 60 min, then with Alexa Fluor 647 anti-human IgG immunoconjugates for 30 min at 4°C, then run on a flow cytometer. Clonogenic survival assays: Cells were treated with γ-radiation (0-8Gy) or ^177Lu-RIT (0-3MBq/72nM) then seeded in into 6-well plates and allowed to grow at 37°C, 5% CO2, for 14 days. Then colonies were fixed/stained and counted. Subcellular fractionation: Cells were treated with ^177Lu-RIT (1MBq/72nM) for 1, 3, 4, and 24 hours. Radioactivity associated with cell surface, cytoplasm, and nucleus was separated then measured in a γ-counter.

[10] = tested on: MIAPaca-2 cells; experiment: clonogenic survival assay, MIAPaca-2; format: cell-based
Protocol: as §1

[11] = tested on: PANC-1 cells; experiment: clonogenic survival assay, PANC-1; format: cell-based
Protocol: as §1

[12] = tested on: AsPC-1 cells; experiment: clonogenic survival assay, AsPC-1; format: cell-based
Protocol: as §1

[13] = plasma enriched with octreotide
[14] = 2TCM, image-derived input function, WT Q175DN mice n = 9

## CC(=O)NC1CCCN(O)C(=O)/C=C(/C)CCOC(=O)C(NC(=O)CCOCCOCCOCCOCCOCCC(=O)NCc2ccc(-c3nncnn3)cc2)CCCN(O)C(=O)/C=C(/C)CCOC(=O)C(NC(C)=O)CCCN(O)C(=O)/C=C(/C)CCOC1=O (stereo not drawn) (68Ga complex, metal not drawn) [DAFC-(PEG5Tz)]
[1]
  binding after binding of Rtx-TCO to CD20 expressing cells: 4.01 ± 0.24%
[2]
  protein binding: exceeded 50%
[3]
  blood levels: 1 %ID/g
[4]
  log p: below -1

## C/C1=C/C(=O)N(O)CCCC(NC(=O)CCOCCOCCOCCOCCOCCC(=O)NCc2ccc(-c3nncnn3)cc2)C(=O)OCC/C(C)=C\C(=O)N(O)CCCC(NC(=O)CCOCCOCCOCCOCCOCCC(=O)NCc2ccc(-c3nncnn3)cc2)C(=O)OCC/C(C)=C\C(=O)N(O)CCCC(NC(=O)CCOCCOCCOCCOCCOCCC(=O)NCc2ccc(-c3nncnn3)cc2)C(=O)OCC1 (stereo not drawn) (68Ga complex, metal not drawn) [FSC-(PEG5Tz)3]
[1]
  binding after binding of Rtx-TCO to CD20 expressing cells: 15.9 ± 0.88%
[2]
  protein binding: exceeded 50%
[3]
  blood levels: 3 %ID/g
[4]
  log p: below -1

## CC(=O)NC1CCCN(O)C(=O)/C=C(/C)CCOC(=O)C(NC(=O)CCOCCOCCOCCOCCOCCC(=O)NCc2ccc(-c3nncnn3)cc2)CCCN(O)C(=O)/C=C(/C)CCOC(=O)C(NC(=O)CCOCCOCCOCCOCCOCCC(=O)NCc2ccc(-c3nncnn3)cc2)CCCN(O)C(=O)/C=C(/C)CCOC1=O (stereo not drawn) (68Ga complex, metal not drawn) [MAFC-(PEG5Tz)2]
[1]
  binding after binding of Rtx-TCO to CD20 expressing cells: 7.75 ± 0.56%
[2]
  protein binding: exceeded 50%
[4]
  log p: below -1

## C[C@@H](O)[C@H](NC(=O)[C@@H]1CSSC[C@H](NC(=O)[C@@H](Cc2ccccc2)NC(=O)CN2CCN(CC(=O)O)CCN(CC(=O)O)CCN(CC(=O)O)CC2)C(=O)N[C@@H](Cc2ccc(O)cc2)C(=O)N[C@H](Cc2c[nH]c3ccccc23)C(=O)N[C@@H](CCCCN)C(=O)N[C@@H]([C@@H](C)O)C(=O)N1)C(=O)O [177Lu-DOTATATE, metal not drawn]
[5]; [13]
  hydroxylated Lutetium: 6.3%±1.8%
  unbound lutetium: 4.8%±0.8%
[5]; plasma, mean±SD n = 3-4
  hydroxylated Lutetium: 4.9%±1.3%
  unbound lutetium: 4.2%±0.6%

## COCCN(C)Cc1ccc2c(c1)nc1sc(C(=O)N(C)C3CCCCC3)cn12 [YM-202074]
[6]; 20mg/kg i.v., 2min before and 30min after tracer injection, all investigated brain regions
  blockade and displacement of [11C]ITDM: significant blockade and displacement

## CC(C)Nc1cc(-c2csc(N(C)C(=O)c3ccc([11CH3])cc3)n2)ncn1 [[^11C]ITDM]
[6]; [14]
  VT cerebellum: 9.1±2.1 mL/cm^3
  VT thalamus: 8.2±2.1 mL/cm^3

## O=C(O)CN(CCN(CC(=O)O)CC(=O)O)CCN(CC(=O)O)CC(=O)O [free DTPA]
[7]
  decrease of hepatic Pu level: 19%
  decrease of skeletal Pu level: 12%
  decrease of splenic Pu level: 24%

## GRPr antagonist H2N-4-amino-1-carboxymethyl piperidine-[(R)-Phe^6, Sta^13]BN(6-14) linked to the chelator HBED-CC, labelled with 68Ga (peptide)
[8]
  cell bound, % given radioactivity (MDA-MB-231+ cells, 1 h) (% given radioactivity): 3
  cell bound, % given radioactivity (PC-3+ cells, 1 h) (% given radioactivity): 30
  cell bound, % given radioactivity (T47D+ cells, 1 h) (% given radioactivity): 9

## ^177Lu-RIT: panitumumab modified with a NOTA chelator and radiolabeled with 177Lu
[9]; Capan-1
  D10 (clonogenic survival reduced to 10%): 1 MBq
[9]; Capan-1, compared to γ-radiation
  RBE: 0.3
[9]; Capan-1, microdosimetry
  D10 after 177Lu-RIT: 8.2 Gy
[10]; MIAPaca-2
  D10 (clonogenic survival reduced to 10%): 6.0 MBq
[10]; MIAPaca-2, compared to γ-radiation
  RBE: 0.2
[10]; MIAPaca-2, microdosimetry
  D10 after 177Lu-RIT: 23.3 Gy
[11]; PANC-1
  D10 (clonogenic survival reduced to 10%): 1.1 MBq
[11]; PANC-1, compared to γ-radiation
  RBE: 1.0
[11]; PANC-1, microdosimetry
  D10 after 177Lu-RIT: 5.7 Gy
[12]; AsPc-1
  D10 (clonogenic survival reduced to 10%): 3.1 MBq
[12]; AsPc-1, compared to γ-radiation
  RBE: 0.2
[12]; AsPc-1, microdosimetry
  D10 after 177Lu-RIT: 16.9 Gy
